According to publication PMC9663578, “A fluorogenic probe for predicting treatment response in non-small cell lung cancer with EGFR-activating mutations” (Nature Communications, 2022):
Several values for one entry are separate records, joined by “and”; a condition that tells them apart may be missing. Identical values can stand only once.

Legend:
EGFR L858R = target: T1, EGFR L858R (Homo sapiens, UniProt P00533, L858R); experiment: Fluorescence turn-on response / titration of HX103 with recombinant EGFR;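 further: fluorescence of the probe measured with recombinant EGFR L858R in PBS carrying 0.1% DMSO, excitation at 440 nm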; type: binding; conditions: Supplementary Fig. 2f; EGFR 6 µM; n=1-3; 0 at EGFR 0
T1 construct: EGFR L858R (amino acids 668–1210, #PR7447A); purchased Thermo Fisher PR7447A
Procedure: (d) Fluorescence spectra change of HX103 (5 µ M) with increasing concentration of EGFR L858R
(e) Fluorescence spectra change of HX103 (5 µ M ) with
increasing concentration of EGFR 19del (0 to 6 µM) in PBS buffer. (f) Titration curve of HX103
(5 µM) with increasing concentration of EGFRs (0 to 6 µM). The apparent binding affinity (Kd)
The fluorescence titration curve was fitted on one -
site specific binding model. I and I0 represent the intensities of HX103 at 570 nm in the presence
and absence of protein. Data represent average val ues ± SD, n = 3 independent experiments per
dissolved in dimethyl sulfoxide (DMSO) to obtain stock solutions (10 mM). The prepared stock
solution was diluted in sodium phosphate buffer (PBS, 1 M, pH=7.4) to obtain the desired final
concentration solution, containing 0.1% (v/v) DMSO as a cosolvent.
and emission fluorescence spectra of the solution before/after addition o f different concentration
Data analysis：The obtained fluorescence intensity at 570 nm (Excitation wavelength was 440
nm) in each sample was normalized by using the fluorescence intensity of HX103 in the presence
of EGFR. Specifically, the fluorescence intensity of HX103 in the presence of EGFR wild-type
was set at 100% to normalized that of the remaining samples.

H1975 cells [1] = experiment: FACS assay in cultured cells; conditions: for HX103 dose-dependent signal (Supplementary Fig. 18): 20 µM = 100
Procedure: (§1) Briefly, the cultured cells were seeded on the petri dish and counted using Count star BioMed automated cell counter. Around 10^6 live-cells were collected and were pelleted (2000×g, 3 min), followed by washing with PBS (2x). Cells were then resuspended in PBS buffer containing 0.1% BSA (1 × 10^6 cells/mL). […] The cell suspension was resuspended in PBS and analyzed with a FACSVerse^TM flow cytometer (BD Biosciences, LSRFortessa). About 10,000 events per tube were analyzed and the mean fluorescence intensity was detected and analyzed.
(§2) For the FACS assay with EGFR antibody, around 10^6 live-cells were collected and washed with PBS (2x). The cells were fixed by 400 µL 4% paraformaldehyde for 15 min at room temperature, followed by permeabilization with 0.1% Triton X-100 for 10 min and blocking with 5% BSA for 30 min. […] The cells were then washed with 0.5% BSA/PBS (3x) and resuspended in 400 µL of 0.1% BSA/PBS. […] The resuspended cell suspension was then analyzed on a FACSVerseTM flow cytometer (BD Biosciences, LSRFortessa). Nonspecific fluorescence binding was omitted by Rabbit mAb IgG isotype control (#3900, CST, 1:100) and the corresponding mean fluorescence was subtracted from the signal measured with each primary antibody. About 10,000 events per tube were analyzed and the mean fluorescence intensity was detected and analyzed.
(§3) Subsequently, the treated cells were incubated for 30 min at 37 °C, followed by washing with PBS buffer three times. […] Finally, the co-stained cells were washed with 0.5% BSA/PBS for three times and resuspended in 400 µL of 0.1% BSA/PBS. The obtained cell suspension was ready for analysis. Nonspecific fluorescence binding was omitted by Rabbit mAb IgG isotype control (#3900, CST, 1:100) as described above.
(§4) Nonspecific fluorescence binding was omitted by Rabbit mAb IgG isotype control (#3900, CST, 1:100). […] After incubation for another 30 min at room temperature, the co-stained cells were washed with 0.5% BSA/PBS for three times and resuspended in 400 µL of 0.1% BSA/PBS. The obtained cell suspension was ready for analysis. Nonspecific fluorescence binding was omitted by Rabbit mAb IgG isotype control (#3900, CST, 1:100) as described above.
(§5) The cells were seeded on the petri dish and cultured at the normal condition with 10% FBS, and that was changed to serum-free condition for 24 h when the cells proliferated at ~80% confluence. […] Nonspecific fluorescence binding was omitted by Rabbit mAb IgG isotype control (#3900, CST, 1:100) as described above.

A549 cells = experiment: FACS assay in cultured cells; conditions: for HX103 dose-dependent signal (Supplementary Fig. 18): 20 µM = 100
Procedure: as §1, §2, §3, §4, §5

PC-9 cells = experiment: FACS assay in cultured cells; conditions: for HX103 dose-dependent signal (Supplementary Fig. 18): 20 µM = 100
Procedure: The FACS assay was performed according to the reported literatures[67],[68]. Briefly, the cultured cells were seeded on the petri dish and counted using Count star BioMed automated cell counter. Around 10^6 live-cells were collected and were pelleted (2000×g, 3 min), followed by washing with PBS (2x). Cells were then resuspended in PBS buffer containing 0.1% BSA (1 × 10^6 cells/mL). […] The cell suspension was resuspended in PBS and analyzed with a FACSVerse^TM flow cytometer (BD Biosciences, LSRFortessa). About 10,000 events per tube were analyzed and the mean fluorescence intensity was detected and analyzed.
as §2, §3, §4, §5

H1975 cells [2] = experiment: Subcellular co-localization of HX103 (confocal); type: cell-based, human; conditions: HX103 5 µM, 0.5 h, ER/Mito/Lyso trackers
Procedure: Supplementary Figure 6. Application of HX103 in living cells. (a-c) Subcellular co-localization of HX103 with Lyso tracker (a), Mito tracker (b) or ER tracker (c). H1975 cells were treated with HX103 (5 µM, 0.5 h) and stained with Lyso tracker ([…], 30 min), Mito tracker (100 nM, 15 min) or ER tracker (500 nM, 15 min). After a PBS washing, the cells were used for confocal microscopy. Scale bar, 20 µm. Three biological independent experiments were repeated with similar results. (d) The mean fluorescence intensity analysis along white arrows in the overlay image in (a-c). Source data are provided as a Source Data file.
(1 picture or pasted object on this page, not shown here)

[3] = HX103 5 µM, 30 min, replicates n=1-3

## COc1cc2c(Nc3ccc(F)c(Cl)c3)ncnc2cc1OCCCNc1ccc(S(=O)(=O)N(C)C)c2nonc12 [HX103]
EGFR L858R
  Fluorescence response of HX103 to EGFR L858R: 9.745 and 11.2537 and 8.24
H1975 cells [1]; H1975, AVE of n=3
  EGFR(+) HX103 (+) (%) AVE: 82.37%
  HX103 (+) (%) AVE: 87.9667%
H1975 cells [1]; H1975, HX103 0.04 µM
  HX103 dose-dependent signal (Supplementary Fig. 18): 2.425 and 4.214 and 3.319
H1975 cells [1]; H1975, HX103 0.37 µM
  HX103 dose-dependent signal (Supplementary Fig. 18): 11.9338 and 12.3486 and 12.1512
H1975 cells [1]; H1975, HX103 1.1 µM
  HX103 dose-dependent signal (Supplementary Fig. 18): 36.5652 and 42.2419 and 39.4086
H1975 cells [1]; H1975, HX103 3.3 µM
  HX103 dose-dependent signal (Supplementary Fig. 18): 51.8347 and 43.4647 and 47.0457
H1975 cells [1]; H1975, HX103 10 µM
  HX103 dose-dependent signal (Supplementary Fig. 18): 81.1792 and 74.1549 and 77.687
H1975 cells [1]; H1975, HX103 15 µM
  HX103 dose-dependent signal (Supplementary Fig. 18): 93.412 and 78.0323 and 85.7212
H1975 cells [1]; H1975, HX103 20 µM
  HX103 dose-dependent signal (Supplementary Fig. 18): 100
H1975 cells [1]; H1975, HX103 alone or with Gefitinib, replicates n=1-3
  HX103 signal (Supplementary Fig. 7): 118.617 and 81.9826 and 99.4
H1975 cells [1]; H1975, replicates n=1-3
  EGFR(+) HX103 (+) (%): 74.3% and 85.37% and 87.44%
  HX103(+) (%): 98.62% and 87.52% and 77.76%
H1975 cells [1]; [3]
  normalized MFI of HX103 labeling: 81.9742% and 118.026% and 100%
H1975 cells [1]; HX103 5 µM, replicates n=1-3
  EGFR(+) HX103 (+) (%): 85.37% and 87.44% and 74.3%
A549 cells; A549, AVE of n=3
  EGFR(+) HX103 (+) (%) AVE: 13.21%
  HX103 (+) (%) AVE: 14.4253%
A549 cells; A549, HX103 0.04 µM
  HX103 dose-dependent signal (Supplementary Fig. 18): 1.227 and 1.64 and 1.474
A549 cells; A549, HX103 0.37 µM
  HX103 dose-dependent signal (Supplementary Fig. 18): 16.7962 and 13.0237 and 14.9399
A549 cells; A549, HX103 1.1 µM
  HX103 dose-dependent signal (Supplementary Fig. 18): 32.8472 and 24.022 and 28.4446
A549 cells; A549, HX103 3.3 µM
  HX103 dose-dependent signal (Supplementary Fig. 18): 43.6352 and 41.2034 and 42.4293
A549 cells; A549, HX103 10 µM
  HX103 dose-dependent signal (Supplementary Fig. 18): 71.5104 and 62.9379 and 67.2341
A549 cells; A549, HX103 15 µM
  HX103 dose-dependent signal (Supplementary Fig. 18): 96.2656 and 89.3616 and 85.8336
A549 cells; A549, HX103 20 µM
  HX103 dose-dependent signal (Supplementary Fig. 18): 100
A549 cells; A549, HX103 alone or with Gefitinib, replicates n=1-3
  HX103 signal (Supplementary Fig. 7): 102.046 and 98.7743 and 99.18
A549 cells; A549, replicates n=1-3
  EGFR(+) HX103 (+) (%): 7.43% and 15.21% and 16.99%
  HX103(+) (%): 14.626% and 17.32% and 11.33%
A549 cells; [3]
  normalized MFI of HX103 labeling: 51.9313% and 58.1545% and 55.0429%
A549 cells; HX103 5 µM, replicates n=1-3
  EGFR(+) HX103 (+) (%): 15.21% and 16.99% and 7.43%
PC-9 cells; [3]
  normalized MFI of HX103 labeling: 81.9742% and 91.6309% and 86.8026%
PC-9 cells; HX103 5 µM, replicates n=1-3
  EGFR(+) HX103 (+) (%): 64.51% and 67.13% and 48.39%
PC-9 cells; PC-9, AVE of n=3
  EGFR(+) HX103 (+) (%) AVE: 60.01%
  HX103 (+) (%) AVE: 59.6433%
PC-9 cells; PC-9, HX103 0.37 µM
  HX103 dose-dependent signal (Supplementary Fig. 18): 18.3072 and 15.0075 and 16.6544
PC-9 cells; PC-9, HX103 3.3 µM
  HX103 dose-dependent signal (Supplementary Fig. 18): 59.5109 and 51.9447 and 55.7208
PC-9 cells; PC-9, HX103 10 µM
  HX103 dose-dependent signal (Supplementary Fig. 18): 68.1021 and 78.5978 and 73.3469
PC-9 cells; PC-9, HX103 15 µM
  HX103 dose-dependent signal (Supplementary Fig. 18): 80.0389 and 87.1198 and 83.5744
PC-9 cells; PC-9, HX103 20 µM
  HX103 dose-dependent signal (Supplementary Fig. 18): 100
PC-9 cells; PC-9, HX103 alone or with Gefitinib, replicates n=1-3
  HX103 signal (Supplementary Fig. 7): 103.242 and 99.7186 and 97.0394
PC-9 cells; PC-9, replicates n=1-3
  EGFR(+) HX103 (+) (%): 48.39% and 64.51% and 67.13%
  HX103(+) (%): 59.69% and 66.68% and 52.56%
H1975 cells [2]
  subcellular distribution of HX103-labeled EGFR: internalized and translocated in the endoplasmic reticulum
